This passage reports IC50 and Ki results from ChEMBL document CHEMBL1909046, “DrugMatrix in vitro pharmacology data”.

Chain of Vascular endothelial growth factor receptor 1 (P17948 whole entry): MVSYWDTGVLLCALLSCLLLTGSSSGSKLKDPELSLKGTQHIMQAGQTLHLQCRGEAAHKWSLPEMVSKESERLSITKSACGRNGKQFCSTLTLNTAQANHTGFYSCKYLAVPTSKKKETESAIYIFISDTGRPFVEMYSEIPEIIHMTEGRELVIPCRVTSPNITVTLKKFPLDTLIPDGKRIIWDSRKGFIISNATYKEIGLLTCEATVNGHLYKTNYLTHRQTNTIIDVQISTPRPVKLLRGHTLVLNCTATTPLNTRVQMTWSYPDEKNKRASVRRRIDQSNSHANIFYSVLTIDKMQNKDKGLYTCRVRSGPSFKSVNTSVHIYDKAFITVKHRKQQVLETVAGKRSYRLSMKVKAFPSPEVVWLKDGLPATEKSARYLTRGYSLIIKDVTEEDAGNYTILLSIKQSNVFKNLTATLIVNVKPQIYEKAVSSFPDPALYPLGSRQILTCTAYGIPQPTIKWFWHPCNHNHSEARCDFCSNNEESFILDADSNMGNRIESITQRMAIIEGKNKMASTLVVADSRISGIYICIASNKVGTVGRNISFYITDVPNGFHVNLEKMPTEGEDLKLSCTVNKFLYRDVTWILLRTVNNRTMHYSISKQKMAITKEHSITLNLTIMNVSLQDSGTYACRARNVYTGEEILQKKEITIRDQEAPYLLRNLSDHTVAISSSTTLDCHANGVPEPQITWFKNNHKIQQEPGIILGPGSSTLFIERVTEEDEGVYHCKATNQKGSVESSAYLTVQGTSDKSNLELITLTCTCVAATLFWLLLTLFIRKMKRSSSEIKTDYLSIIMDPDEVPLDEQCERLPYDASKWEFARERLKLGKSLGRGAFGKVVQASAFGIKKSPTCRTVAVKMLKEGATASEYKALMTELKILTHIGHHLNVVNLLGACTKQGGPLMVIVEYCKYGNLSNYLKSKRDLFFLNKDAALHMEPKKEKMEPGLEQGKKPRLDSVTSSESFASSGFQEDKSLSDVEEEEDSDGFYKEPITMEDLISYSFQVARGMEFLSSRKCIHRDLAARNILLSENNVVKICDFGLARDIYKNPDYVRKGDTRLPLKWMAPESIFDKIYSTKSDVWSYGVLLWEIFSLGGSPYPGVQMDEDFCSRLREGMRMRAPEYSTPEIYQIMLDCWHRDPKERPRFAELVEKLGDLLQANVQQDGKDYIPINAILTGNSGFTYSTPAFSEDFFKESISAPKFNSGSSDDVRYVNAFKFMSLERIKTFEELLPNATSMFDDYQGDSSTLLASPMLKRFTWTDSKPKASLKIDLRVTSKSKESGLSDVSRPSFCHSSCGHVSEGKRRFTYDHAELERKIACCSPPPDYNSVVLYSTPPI

Tested on in one data set: not listed separately
The data set is described as follows: DRUGMATRIX: Sodium/nucleoside co-transporter radioligand binding (ligand: nitrobenzylthioinosine). It counts as cell membranes, Cavia porcellus, Dunkin-Hartley, Cerebral cortex, Membrane. The note with it: Not Active = under 50% inhibition at 10 µM.
On to `Cn1ccnc1S` [METHIMAZOLE], for which the IC50 entry was “Not Active” and the Ki entry is “Not Active”.

Turning to `N[C@@H]1[C@H]2CN(c3nc4c(cc3F)c(=O)c(C(=O)O)cn4-c3ccc(F)cc3F)C[C@@H]12` [TROVAFLOXACIN], the IC50 result is listed as “Not Active” and the Ki entry is listed as “Not Active”.

In the case of `CC1(C)O[C@@H]2C[C@H]3[C@@H]4CCC5=CC(=O)C=C[C@]5(C)[C@@]4(F)[C@@H](O)C[C@]3(C)[C@]2(C(=O)CO)O1` [TRIAMCINOLONE ACETONIDE], the IC50 entry was “Not Active” and the Ki result was “Not Active”.

As for `COc1c(C)c2c(c(O)c1C/C=C(\C)CCC(=O)O)C(=O)OC2` [MYCOPHENOLIC ACID], the IC50 result was “Not Active” and the Ki result is listed as “Not Active”.

As to `N[C@@H](Cc1ccc(N(CCCl)CCCl)cc1)C(=O)O`, the IC50 result is on record as “Not Active” and the Ki entry is recorded as “Not Active”.

For the molecule `O=NN(CCCl)C(=O)NC1CCCCC1` [LOMUSTINE], the IC50 result was “Not Active” and the Ki entry was “Not Active”.

As for `CSc1ccc(/C=C2/C(C)=C(CC(=O)O)c3cc(F)ccc32)cc1` [SULINDAC SULFIDE], the IC50 entry is given as “Not Active” and the Ki entry was “Not Active”.

On to SODIUM NITROPRUSSIDE, for which the IC50 result is listed as “Not Active” and the Ki entry is reported as “Not Active”.

The next data set concerns the target T1, Alpha-1B adrenergic receptor (Rattus norvegicus, UniProt P15823).
T1 sequence (P15823 whole entry): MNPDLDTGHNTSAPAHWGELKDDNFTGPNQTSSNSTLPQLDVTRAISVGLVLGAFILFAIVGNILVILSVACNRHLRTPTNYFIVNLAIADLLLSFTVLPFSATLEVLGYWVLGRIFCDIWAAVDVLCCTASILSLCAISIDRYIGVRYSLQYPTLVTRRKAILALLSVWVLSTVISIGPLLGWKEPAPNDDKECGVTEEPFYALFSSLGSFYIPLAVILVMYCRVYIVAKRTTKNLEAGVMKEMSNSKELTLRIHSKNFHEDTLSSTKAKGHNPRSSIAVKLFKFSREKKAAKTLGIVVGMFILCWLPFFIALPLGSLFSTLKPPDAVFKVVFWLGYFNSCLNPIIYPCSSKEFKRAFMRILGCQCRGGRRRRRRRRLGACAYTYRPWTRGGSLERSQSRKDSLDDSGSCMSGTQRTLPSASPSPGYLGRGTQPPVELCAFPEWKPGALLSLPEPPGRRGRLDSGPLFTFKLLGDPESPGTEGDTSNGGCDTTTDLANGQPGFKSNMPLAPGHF
The data set is described as follows: DRUGMATRIX: Alpha-1B adrenergic receptor radioligand binding (ligand: prazosin). It counts as cell membranes, Wistar, Liver, Membrane. The note with it: Not Active = under 50% inhibition at 10 µM.
`Cn1ccnc1S` [METHIMAZOLE]: the IC50 result is “Not Active”.

Consider `N[C@@H]1[C@H]2CN(c3nc4c(cc3F)c(=O)c(C(=O)O)cn4-c3ccc(F)cc3F)C[C@@H]12` [TROVAFLOXACIN], for which the IC50 entry was “Not Active”.

For the molecule `CC1(C)O[C@@H]2C[C@H]3[C@@H]4CCC5=CC(=O)C=C[C@]5(C)[C@@]4(F)[C@@H](O)C[C@]3(C)[C@]2(C(=O)CO)O1` [TRIAMCINOLONE ACETONIDE], the IC50 entry is given as “Not Active”.

With `COc1c(C)c2c(c(O)c1C/C=C(\C)CCC(=O)O)C(=O)OC2` [MYCOPHENOLIC ACID], the IC50 entry was “Not Active”.

As for `N[C@@H](Cc1ccc(N(CCCl)CCCl)cc1)C(=O)O`, the IC50 entry is on record as “Not Active”.

On to `O=NN(CCCl)C(=O)NC1CCCCC1` [LOMUSTINE], for which the IC50 entry is reported as “Not Active”.

Take `CSc1ccc(/C=C2/C(C)=C(CC(=O)O)c3cc(F)ccc32)cc1` [SULINDAC SULFIDE]: the IC50 entry is “Not Active”.

On to SODIUM NITROPRUSSIDE, for which the IC50 result was “Not Active” and the Ki result is listed as “Not Active”.

Tested on in a further data set: not listed separately
In words: DRUGMATRIX: ATPase, Na+/K+ enzyme inhibition (substrate: ATP). It counts as tissue-based, Sus scrofa, Heart. The note with it: Not Active = under 50% inhibition at 10 µM.
In the case of `Cn1ccnc1S` [METHIMAZOLE], the IC50 result is “Not Active” and the Ki result is listed as “Not Active”.

As to `N[C@@H]1[C@H]2CN(c3nc4c(cc3F)c(=O)c(C(=O)O)cn4-c3ccc(F)cc3F)C[C@@H]12` [TROVAFLOXACIN], the IC50 entry is “Not Active” and the Ki entry is reported as “Not Active”.

As for `CC1(C)O[C@@H]2C[C@H]3[C@@H]4CCC5=CC(=O)C=C[C@]5(C)[C@@]4(F)[C@@H](O)C[C@]3(C)[C@]2(C(=O)CO)O1` [TRIAMCINOLONE ACETONIDE], the IC50 entry is reported as “Not Active” and the Ki result was “Not Active”.

On to `COc1c(C)c2c(c(O)c1C/C=C(\C)CCC(=O)O)C(=O)OC2` [MYCOPHENOLIC ACID], for which the IC50 result is reported as “Not Active” and the Ki entry is listed as “Not Active”.

Take `N[C@@H](Cc1ccc(N(CCCl)CCCl)cc1)C(=O)O`: the IC50 entry is recorded as “Not Active” and the Ki entry is “Not Active”.

Turning to `O=NN(CCCl)C(=O)NC1CCCCC1` [LOMUSTINE], the IC50 result is on record as “Not Active” and the Ki entry is on record as “Not Active”.

On to `CSc1ccc(/C=C2/C(C)=C(CC(=O)O)c3cc(F)ccc32)cc1` [SULINDAC SULFIDE], for which the IC50 entry is given as “Not Active” and the Ki entry was “Not Active”.

Consider SODIUM NITROPRUSSIDE, for which the IC50 entry is “Not Active” and the Ki result was “Not Active”.

The next data set addresses Vascular endothelial growth factor receptor 1 (Homo sapiens, UniProt P17948). It counts as cell-based. To be noted: huvec.
In the case of `Cn1ccnc1S` [METHIMAZOLE], the IC50 entry is given as “Not Active”.

With `N[C@@H]1[C@H]2CN(c3nc4c(cc3F)c(=O)c(C(=O)O)cn4-c3ccc(F)cc3F)C[C@@H]12` [TROVAFLOXACIN], the IC50 result is reported as “Not Active”.

As for `CC1(C)O[C@@H]2C[C@H]3[C@@H]4CCC5=CC(=O)C=C[C@]5(C)[C@@]4(F)[C@@H](O)C[C@]3(C)[C@]2(C(=O)CO)O1` [TRIAMCINOLONE ACETONIDE], the IC50 entry is listed as “Not Active”.

For the molecule `COc1c(C)c2c(c(O)c1C/C=C(\C)CCC(=O)O)C(=O)OC2` [MYCOPHENOLIC ACID], the IC50 result is reported as “Not Active”.

As for `N[C@@H](Cc1ccc(N(CCCl)CCCl)cc1)C(=O)O`, the IC50 entry is “Not Active”.

As to `O=NN(CCCl)C(=O)NC1CCCCC1` [LOMUSTINE], the IC50 entry is “Not Active”.

As to `CSc1ccc(/C=C2/C(C)=C(CC(=O)O)c3cc(F)ccc32)cc1` [SULINDAC SULFIDE], the IC50 result was “Not Active”.

In the case of SODIUM NITROPRUSSIDE, the IC50 result was “Not Active” and the Ki result was “Not Active”.

A further data set has as its target T2, D(4) dopamine receptor (Homo sapiens, UniProt P21917).
T2 sequence (P21917 whole entry): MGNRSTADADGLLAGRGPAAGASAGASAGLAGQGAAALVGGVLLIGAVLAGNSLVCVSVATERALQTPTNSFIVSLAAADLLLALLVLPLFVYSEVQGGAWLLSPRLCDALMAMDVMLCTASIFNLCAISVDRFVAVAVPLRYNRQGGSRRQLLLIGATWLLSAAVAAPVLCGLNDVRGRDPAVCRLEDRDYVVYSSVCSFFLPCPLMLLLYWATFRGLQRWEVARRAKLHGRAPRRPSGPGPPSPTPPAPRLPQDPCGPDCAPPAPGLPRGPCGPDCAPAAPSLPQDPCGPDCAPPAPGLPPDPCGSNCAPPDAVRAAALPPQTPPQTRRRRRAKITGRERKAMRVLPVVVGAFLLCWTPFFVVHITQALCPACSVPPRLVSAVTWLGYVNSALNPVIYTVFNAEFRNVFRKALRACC
In words: DRUGMATRIX: Dopamine D4.2 radioligand binding (ligand: [3H] Spiperone). It counts as cell membranes, CHO-K1, Membrane. The note with it: cho-k1; Not Active = under 50% inhibition at 10 µM.
With `Cn1ccnc1S` [METHIMAZOLE], the IC50 entry is recorded as “Not Active”.

As for `N[C@@H]1[C@H]2CN(c3nc4c(cc3F)c(=O)c(C(=O)O)cn4-c3ccc(F)cc3F)C[C@@H]12` [TROVAFLOXACIN], the IC50 result was “Not Active”.

As for `CC1(C)O[C@@H]2C[C@H]3[C@@H]4CCC5=CC(=O)C=C[C@]5(C)[C@@]4(F)[C@@H](O)C[C@]3(C)[C@]2(C(=O)CO)O1` [TRIAMCINOLONE ACETONIDE], the IC50 result is “Not Active”.

Consider `COc1c(C)c2c(c(O)c1C/C=C(\C)CCC(=O)O)C(=O)OC2` [MYCOPHENOLIC ACID], for which the IC50 entry is given as “Not Active”.

Consider `N[C@@H](Cc1ccc(N(CCCl)CCCl)cc1)C(=O)O`, for which the IC50 result is “Not Active”.

Consider `O=NN(CCCl)C(=O)NC1CCCCC1` [LOMUSTINE], for which the IC50 entry is recorded as “Not Active”.

In the case of `CSc1ccc(/C=C2/C(C)=C(CC(=O)O)c3cc(F)ccc32)cc1` [SULINDAC SULFIDE], the IC50 result is on record as “Not Active”.

As for SODIUM NITROPRUSSIDE, the IC50 result is listed as “Not Active” and the Ki result is listed as “Not Active”.

The target in the next data set is Melanocortin receptor 5 (Homo sapiens, UniProt P33032). It counts as cell membranes, HEK293, Membrane. The note with it: hek293. Note: in other assays of this panel Not Active means under 50% inhibition at 10 µM.
Chain of Melanocortin receptor 5 (P33032 whole entry): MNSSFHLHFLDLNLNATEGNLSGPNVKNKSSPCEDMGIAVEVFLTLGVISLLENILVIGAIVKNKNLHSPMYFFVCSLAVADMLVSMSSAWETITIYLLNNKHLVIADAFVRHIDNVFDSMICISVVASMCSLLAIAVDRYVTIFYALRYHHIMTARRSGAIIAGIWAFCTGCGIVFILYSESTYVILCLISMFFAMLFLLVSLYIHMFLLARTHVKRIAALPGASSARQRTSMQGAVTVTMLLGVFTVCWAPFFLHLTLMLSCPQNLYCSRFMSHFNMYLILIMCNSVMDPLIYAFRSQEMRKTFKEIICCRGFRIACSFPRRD
With `Cn1ccnc1S` [METHIMAZOLE], the IC50 entry was “Not Active”.

As for `N[C@@H]1[C@H]2CN(c3nc4c(cc3F)c(=O)c(C(=O)O)cn4-c3ccc(F)cc3F)C[C@@H]12` [TROVAFLOXACIN], the IC50 result is reported as “Not Active”.

As for `CC1(C)O[C@@H]2C[C@H]3[C@@H]4CCC5=CC(=O)C=C[C@]5(C)[C@@]4(F)[C@@H](O)C[C@]3(C)[C@]2(C(=O)CO)O1` [TRIAMCINOLONE ACETONIDE], the IC50 entry was “Not Active”.

Turning to `COc1c(C)c2c(c(O)c1C/C=C(\C)CCC(=O)O)C(=O)OC2` [MYCOPHENOLIC ACID], the IC50 result is “Not Active”.

On to `N[C@@H](Cc1ccc(N(CCCl)CCCl)cc1)C(=O)O`, for which the IC50 entry was “Not Active”.

Take `O=NN(CCCl)C(=O)NC1CCCCC1` [LOMUSTINE]: the IC50 entry is reported as “Not Active”.

`CSc1ccc(/C=C2/C(C)=C(CC(=O)O)c3cc(F)ccc32)cc1` [SULINDAC SULFIDE]: the IC50 result is given as “Not Active”.

Turning to SODIUM NITROPRUSSIDE, the IC50 result is listed as “Not Active” and the Ki entry is reported as “Not Active”.

The target of another data set is Cytochrome P450 2C9 (Homo sapiens, UniProt P11712). To be noted: bti-tn-5b1-4. Note: in other assays of this panel Not Active means under 50% inhibition at 10 µM.
Chain of Cytochrome P450 2C9 (P11712 whole entry): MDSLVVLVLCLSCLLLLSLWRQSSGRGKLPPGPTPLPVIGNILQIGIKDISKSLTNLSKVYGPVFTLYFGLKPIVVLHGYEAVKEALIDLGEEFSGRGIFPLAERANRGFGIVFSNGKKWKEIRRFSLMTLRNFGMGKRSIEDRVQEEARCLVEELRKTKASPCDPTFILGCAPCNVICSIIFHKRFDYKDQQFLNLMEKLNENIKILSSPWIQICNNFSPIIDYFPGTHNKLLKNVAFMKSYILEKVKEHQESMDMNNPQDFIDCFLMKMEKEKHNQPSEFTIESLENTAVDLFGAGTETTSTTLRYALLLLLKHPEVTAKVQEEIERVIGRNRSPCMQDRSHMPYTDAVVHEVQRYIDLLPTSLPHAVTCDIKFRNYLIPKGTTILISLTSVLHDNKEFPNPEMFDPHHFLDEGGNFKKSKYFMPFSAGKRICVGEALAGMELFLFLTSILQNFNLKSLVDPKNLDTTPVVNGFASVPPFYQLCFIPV
Turning to `Cn1ccnc1S` [METHIMAZOLE], the IC50 result is reported as “Not Active” and the Ki result is “Not Active”.

In the case of `N[C@@H]1[C@H]2CN(c3nc4c(cc3F)c(=O)c(C(=O)O)cn4-c3ccc(F)cc3F)C[C@@H]12` [TROVAFLOXACIN], the IC50 result is on record as “Not Active” and the Ki entry was “Not Active”.

With `CC1(C)O[C@@H]2C[C@H]3[C@@H]4CCC5=CC(=O)C=C[C@]5(C)[C@@]4(F)[C@@H](O)C[C@]3(C)[C@]2(C(=O)CO)O1` [TRIAMCINOLONE ACETONIDE], the IC50 result was “Not Active” and the Ki entry was “Not Active”.

`COc1c(C)c2c(c(O)c1C/C=C(\C)CCC(=O)O)C(=O)OC2` [MYCOPHENOLIC ACID]: the IC50 result was “Not Active” and the Ki entry is listed as “Not Active”.

As to `N[C@@H](Cc1ccc(N(CCCl)CCCl)cc1)C(=O)O`, the IC50 result is reported as “Not Active” and the Ki result is “Not Active”.

For the molecule `O=NN(CCCl)C(=O)NC1CCCCC1` [LOMUSTINE], the IC50 entry is “Not Active” and the Ki entry is “Not Active”.

For the molecule `CSc1ccc(/C=C2/C(C)=C(CC(=O)O)c3cc(F)ccc32)cc1` [SULINDAC SULFIDE], the IC50 result was “Not Active” and the Ki result is “Not Active”.

Take SODIUM NITROPRUSSIDE: the IC50 result is recorded as “Not Active” and the Ki entry is recorded as “Not Active”.
